System: hMMP-12
Test: hMMP-12 inhibition assay in diluted mouse plasma
Format: biochemical, human
Conditions: mouse plasma versus buffer

NC(=O)[C@H](CCC(=O)O)NC(=O)[C@H](CCC(=O)O)NC(=O)[C@H](Cc1cc(-c2ccc(-c3cccc(Cl)c3)cc2)no1)CP(=O)(O)c1ccc(Br)cc1 [RXP470.1]
drop in affinity towards hMMP-12 in mouse plasma (factor): 470

Source: article PMC7054845 (Journal of medicinal chemistry, 2019)
